# Assay results: US20260199281A1, “NEW USE OF SIVELESTAT” (SHANGHAI HUILUN PHARMACEUTICAL CO., LTD., priority 2022, published 2026)
# Legend:
# [1] = tested on: carrageenan-induced pain models; experiment: Determination of thermal radiation (thermal pain threshold), carrageenan-induced pain models; assay type: in vivo, SD male rats; details: for Relative value of thermal radiation: single dose, mean ± SD
# Procedure: The experimental results were expressed as “mean±standard deviation”. The data of each group were statistically analyzed using the SPSS16.0 software package to compare whether there were statistical differences among the groups. P<0.05 indicated a statistical difference. A total of 72 SD male rats aged 6 to 8 weeks, with body weights of 188-208 g, were divided into 9 groups, with 8 rats in each group. […] Then 20 mL of normal saline was added to the glass bottle. The glass bottle was placed on a magnetic stirrer, and magnetic stirring was performed for 6 hours to obtain a 3% carrageenan solution. The carrageenan solution was stored at 4° C. • 1 Fasting: no • 2 Administration route: IP (intraperitoneal injection) • 3 Administration volume: 5 mL/kg • 4 Administration frequency: single-dose administration • 5 Time of administration: administered immediately after induction Sivelestat sodium: 26 mg of sivelestat sodium (corresponding to a dosage of 10 mg/kg) was weighed. Part of normal saline was added, and sonication and vortexing were performed. The pH was adjusted with […] until a homogeneous solution was obtained, and finally, the volume was made up to 13.0 mL. Experimental samples with other dosages (30 mg/kg, 100 mg/kg) could be prepared according to the specific dosages with reference to a similar method. Parecoxib: 24 mg of parecoxib (corresponding to a dosage of 10 mg/kg) was weighed. Part of normal saline was added, and sonication and vortexing were performed. The pH was adjusted with 10 mol NaOH until a homogeneous solution was obtained, and finally, the volume was made up to 12.0 mL. Experimental samples with other dosages (20 mg/kg) could be prepared according to the specific dosages with reference to a similar method. Samples of other COX-2 inhibitors were prepared with reference to the similar method described above. [table] The animals were placed in a transparent plastic box, and could be allowed to acclimatize for 10 minutes before the test. The middle of the plantar surface of the hind limb on the side where carrageenan was injected in the rats was irradiated with a radiant heat light source to determine their thermal pain threshold. The detection was repeated twice. Then the mean value was taken as the final detection index.
# [2] = tested on: carrageenan-induced pain models; experiment: Determination of paw swelling volumes, carrageenan-induced pain models; assay type: in vivo, SD male rats; details: for Relative value of paw volumes: single dose, mean ± SD
# Procedure: The experimental results were expressed as “mean±standard deviation”. The data of each group were statistically analyzed using the SPSS16.0 software package to compare whether there were statistical differences among the groups. P<0.05 indicated a statistical difference. A total of 72 SD male rats aged 6 to 8 weeks, with body weights of 188-208 g, were divided into 9 groups, with 8 rats in each group. […] Then 20 mL of normal saline was added to the glass bottle. The glass bottle was placed on a magnetic stirrer, and magnetic stirring was performed for 6 hours to obtain a 3% carrageenan solution. The carrageenan solution was stored at 4° C. • 1 Fasting: no • 2 Administration route: IP (intraperitoneal injection) • 3 Administration volume: 5 mL/kg • 4 Administration frequency: single-dose administration • 5 Time of administration: administered immediately after induction Sivelestat sodium: 26 mg of sivelestat sodium (corresponding to a dosage of 10 mg/kg) was weighed. Part of normal saline was added, and sonication and vortexing were performed. The pH was adjusted with […] until a homogeneous solution was obtained, and finally, the volume was made up to 13.0 mL. Experimental samples with other dosages (30 mg/kg, 100 mg/kg) could be prepared according to the specific dosages with reference to a similar method. Parecoxib: 24 mg of parecoxib (corresponding to a dosage of 10 mg/kg) was weighed. Part of normal saline was added, and sonication and vortexing were performed. The pH was adjusted with 10 mol NaOH until a homogeneous solution was obtained, and finally, the volume was made up to 12.0 mL. Experimental samples with other dosages (20 mg/kg) could be prepared according to the specific dosages with reference to a similar method. Samples of other COX-2 inhibitors were prepared with reference to the similar method described above. [table] To measure the paw swelling volumes (paw volumes) of experimental rats, the animals were gently held with one hand, and their hind paws were placed into the instrument used to measure the paw volumes with the other hand. The size of the paw volume was recorded. The measurement was repeated twice, and the mean value was taken as the paw volume of the animals.
# [3] = tested on: carrageenan-induced pain models; experiment: Determination of mechanical pain thresholds (electronic Von Frey Hairs), carrageenan-induced pain models; assay type: in vivo, SD male rats; details: for Relative value of Von Frey Hairs: single dose, mean ± SD
# Procedure: The experimental results were expressed as “mean±standard deviation”. The data of each group were statistically analyzed using the SPSS16.0 software package to compare whether there were statistical differences among the groups. P<0.05 indicated a statistical difference. A total of 72 SD male rats aged 6 to 8 weeks, with body weights of 188-208 g, were divided into 9 groups, with 8 rats in each group. […] Then 20 mL of normal saline was added to the glass bottle. The glass bottle was placed on a magnetic stirrer, and magnetic stirring was performed for 6 hours to obtain a 3% carrageenan solution. The carrageenan solution was stored at 4° C. • 1 Fasting: no • 2 Administration route: IP (intraperitoneal injection) • 3 Administration volume: 5 mL/kg • 4 Administration frequency: single-dose administration • 5 Time of administration: administered immediately after induction Sivelestat sodium: 26 mg of sivelestat sodium (corresponding to a dosage of 10 mg/kg) was weighed. Part of normal saline was added, and sonication and vortexing were performed. The pH was adjusted with […] until a homogeneous solution was obtained, and finally, the volume was made up to 13.0 mL. Experimental samples with other dosages (30 mg/kg, 100 mg/kg) could be prepared according to the specific dosages with reference to a similar method. Parecoxib: 24 mg of parecoxib (corresponding to a dosage of 10 mg/kg) was weighed. Part of normal saline was added, and sonication and vortexing were performed. The pH was adjusted with 10 mol NaOH until a homogeneous solution was obtained, and finally, the volume was made up to 12.0 mL. Experimental samples with other dosages (20 mg/kg) could be prepared according to the specific dosages with reference to a similar method. Samples of other COX-2 inhibitors were prepared with reference to the similar method described above. [table] The animals were placed in a specially designed multi-unit metal mesh cage for pain detection, and allowed to acclimate to the environment for 10 minutes. After the grooming and exploratory activities of the animals ceased and the animals adapted to the detection environment, the sole of the hind limb on the side where carrageenan was injected in the rats was stimulated with electronic Von Frey Hairs. […] The value of the Von Frey Hairs at this time, which was the threshold of the mechanical pain response, was recorded with “gram” as the unit of detection. The detection was repeated twice. Then the mean value was taken as the final detection index. The determination of mechanical pain thresholds was performed at a total of 5 time points, including before administration and 1 h, 3 h, 4 h and 6 h after administration.
# [4] = tested on: rat models of post-operative pain; experiment: Mechanical hyperalgesia test in rat models of post-operative pain; assay type: in vivo, Male SD rats; details: used alone, i.p., single dose
# Procedure: Male SD rats were acclimated to the test environment for 3 days before modeling. On the day of modeling, the animals were anesthetized with Zoletil 50+xylazine hydrochloride (20 mg/kg+8 mg/kg, intraperitoneal injection). A longitudinal incision of approximately 1 cm in length was made towards the toes at a position 0.7-0.8 cm from the heel of the left hind paw of the animals. After the skin was incised, the flexor digitorum brevis muscle was lifted, and a longitudinal blunt injury was inflicted. On the first day after the operation, the model animals were randomly divided into 7 groups according to the baseline values of mechanical hyperalgesia.
# Two-way analysis of variance with the Bonferroni's multiple comparison test was performed.
# [5] = 10 mg/kg intraperitoneal, 1 hour after administration
# [6] = 10 mg/kg intraperitoneal, 3 hours after administration
# [7] = 10 mg/kg intraperitoneal, 4 hours after administration
# [8] = 10 mg/kg intraperitoneal, 6 hours after administration
# [9] = 20 mg/kg intraperitoneal, 1 hour after administration
# [10] = 20 mg/kg intraperitoneal, 3 hours after administration
# [11] = 20 mg/kg intraperitoneal, 4 hours after administration
# [12] = 20 mg/kg intraperitoneal, 6 hours after administration
# [13] = 30 mg/kg intraperitoneal, 1 hour after administration
# [14] = 30 mg/kg intraperitoneal, 3 hours after administration
# [15] = 30 mg/kg intraperitoneal, 4 hours after administration
# [16] = 30 mg/kg intraperitoneal, 6 hours after administration
# [17] = 100 mg/kg intraperitoneal, 1 hour after administration
# [18] = 100 mg/kg intraperitoneal, 3 hours after administration
# [19] = 100 mg/kg intraperitoneal, 4 hours after administration
# [20] = 100 mg/kg intraperitoneal, 6 hours after administration
# [21] = used alone at 10, 30 and 100 mg/kg
compound,measurement,setting,value
CCC(=O)NS(=O)(=O)c1ccc(-c2c(-c3ccccc3)noc2C)cc1 [parecoxib],Relative value of thermal radiation,[1]; [5],34.6 ± 18.9 %
same,Relative value of thermal radiation,[1]; [6],16.6 ± 16.7%
same,Relative value of thermal radiation,[1]; [7],22.7 ± 13.8 %
same,Relative value of thermal radiation,[1]; [8],14.6 ± 11.0 %
same,Relative value of thermal radiation,[1]; [9],45.8 ± 25.1 %
same,Relative value of thermal radiation,[1]; [10],58.5 ± 22.3 %
same,Relative value of thermal radiation,[1]; [11],37.4 ± 26.7%
same,Relative value of thermal radiation,[1]; [12],38.0 ± 11.0 %
same,Relative value of paw volumes,[2]; [5],4.34 ± 25.02%
same,Relative value of paw volumes,[2]; [6],24.76 ± 11.32 %
same,Relative value of paw volumes,[2]; [7],22.58 ± 18.82 %
same,Relative value of paw volumes,[2]; [8],20.81 ± 12.66 %
same,Relative value of paw volumes,[2]; [9],18.58 ± 45.76%
same,Relative value of paw volumes,[2]; [10],31.45 ± 25.56 %
same,Relative value of paw volumes,[2]; [11],19.47 ± 23.41%
same,Relative value of paw volumes,[2]; [12],23.95 ± 15.74 %
same,Relative value of Von Frey Hairs,[3]; [5],13.6 ± 5.9 %
same,Relative value of Von Frey Hairs,[3]; [6],16.4 ± 4.2 %
same,Relative value of Von Frey Hairs,[3]; [7],15.1 ± 4.5 %
same,Relative value of Von Frey Hairs,[3]; [8],11.9 ± 5.8 %
same,Relative value of Von Frey Hairs,[3]; [9],13.7 ± 7.5 %
same,Relative value of Von Frey Hairs,[3]; [10],17.3 ± 7.9 %
same,Relative value of Von Frey Hairs,[3]; [11],16.2 ± 4.2 %
same,Relative value of Von Frey Hairs,[3]; [12],12.4 ± 3.9 %
CC(C)(C)C(=O)Oc1ccc(S(=O)(=O)Nc2ccccc2C(=O)NCC(=O)O)cc1 [sivelestat sodium],Relative value of thermal radiation,[1]; [5],10.3 ± 28.7%
same,Relative value of thermal radiation,[1]; [6],19.8 ± 14.0 %
same,Relative value of thermal radiation,[1]; [7],3.7 ± 5.1%
same,Relative value of thermal radiation,[1]; [8],4.2 ± 6.2%
same,Relative value of thermal radiation,[1]; [13],20.9 ± 39.4%
same,Relative value of thermal radiation,[1]; [14],18.0 ± 21.4%
same,Relative value of thermal radiation,[1]; [15],4.0 ± 9.3%
same,Relative value of thermal radiation,[1]; [16],9.2 ± 4.4%
same,Relative value of thermal radiation,[1]; [17],24.0 ± 41.2%
same,Relative value of thermal radiation,[1]; [18],22.3 ± 18.0 %
same,Relative value of thermal radiation,[1]; [19],13.1 ± 11.0%
same,Relative value of thermal radiation,[1]; [20],5.4 ± 8.1%
same,analgesic efficacy in the thermal pain threshold test,"[1]; used alone at 10 mg/kg and 100 mg/kg, 3 hours after administration",significant analgesic efficacy
same,Relative value of paw volumes,[2]; [5],4.86 ± 19.10%
same,Relative value of paw volumes,[2]; [6],8.96 ± 13.90%
same,Relative value of paw volumes,[2]; [7],1.67 ± 15.59%
same,Relative value of paw volumes,[2]; [8],3.70 ± 14.04%
same,Relative value of paw volumes,[2]; [13],20.49 ± 41.12%
same,Relative value of paw volumes,[2]; [14],17.37 ± 17.14%
same,Relative value of paw volumes,[2]; [15],14.09 ± 18.97%
same,Relative value of paw volumes,[2]; [16],14.94 ± 18.68%
same,anti-inflammatory effect (paw volumes),"[2]; 100 mg/kg alone, 6 h after administration",significant anti-inflammatory effect
same,Relative value of paw volumes,[2]; [17],3.99 ± 24.23%
same,Relative value of paw volumes,[2]; [18],18.24 ± 11.26%
same,Relative value of paw volumes,[2]; [19],13.64 ± 15.23%
same,Relative value of paw volumes,[2]; [20],19.27 ± 11.40 %
same,anti-inflammatory effect (paw volumes) compared with the model group,[2]; [21],a certain anti-inflammatory effect
same,effect on post-operative pain (mechanical hyperalgesia),[4],significant effect
same,Relative value of Von Frey Hairs,[3]; [5],17.1 ± 5.5 %
same,Relative value of Von Frey Hairs,[3]; [6],15.3 ± 5.9 %
same,Relative value of Von Frey Hairs,[3]; [7],11.5 ± 6.1 %
same,Relative value of Von Frey Hairs,[3]; [8],4.8 ± 4.4 %
same,Relative value of Von Frey Hairs,[3]; [13],18.9 ± 5.9 %
same,Relative value of Von Frey Hairs,[3]; [14],15.6 ± 7.5 %
same,Relative value of Von Frey Hairs,[3]; [15],15.2 ± 4.2 %
same,Relative value of Von Frey Hairs,[3]; [16],4.1 ± 5.0%
same,Relative value of Von Frey Hairs,[3]; [17],20.4 ± 3.9 %
same,Relative value of Von Frey Hairs,[3]; [18],18.1 ± 3.7 %
same,Relative value of Von Frey Hairs,[3]; [19],15.5 ± 4.3 %
same,Relative value of Von Frey Hairs,[3]; [20],7.9 ± 4.5 %
same,analgesic efficacy in the mechanical pain threshold test,[3]; [21],significant analgesic efficacy
